How the values were obtained:
[1] = tested on: ATP-binding aptamer incorporated DNA scaffold (DNA, duplex) ACCTGGGGGAGTATTGCGGAGGAAGGT/ACCTTCCTCCGCAATACTCCCCCAGGT; test: Dox fluorescence recovery (release of intercalated Dox); conditions: indirect; Dox/DNA mass ratio 1:10; recovery ~20, ~36, ~56% at 4, 8, 20 mM ATP
[2] = tested on: ATP-binding aptamer incorporated DNA scaffold (DNA, duplex) ACCTGGGGGAGTATTGCGGAGGAAGGT/ACCTTCCTCCGCAATACTCCCCCAGGT; test: Dox fluorescence quenching titration; conditions: aqueous solution; Dox 1 µg/mL; maximum quenching at Dox/DNA mass ratio ~1:9.8

binding [1]	binding [2]	Structure (SMILES)
yes	–	Nc1ncnc2c1ncn2[C@@H]1O[C@H](COP(=O)(O)OP(=O)(O)OP(=O)(O)O)[C@@H](O)[C@H]1O
–	yes	COc1cccc2c1C(=O)c1c(O)c3c(c(O)c1C2=O)C[C@@](O)(C(=O)CO)C[C@@H]3O[C@H]1C[C@H](N)[C@H](O)[C@H](C)O1
